Experimental data: patent publication US20090069442A1, “Therapeutic Agent for Sensory Abnormality” (priority 2005, published 2009)
Blank lines part the entries; values can stand above or below the molecule they belong to.

Assays:
[1] = system: sciatic nerve entrapment model rats (Bennett model rats); assay: Injury-preventive effect in partial nerve injury models, paw pressure (Randall-Selitto) method; format: in vivo, Spraugue-Dawley rats
Experimental: (§1) For a hyperalgesia model animal, sciatic nerve entrapment model rats (Bennett model rats) serving as partial nerve injury models, were used. That is, four-week-old male Spraugue-Dawley rats (Japan SLC, Inc.) were housed under a constant temperature and humidity condition for a week. Then, under anesthesia with pentobarbital (50 mg/kg), the sciatic nerve in the left hind paw was stripped from tissue, and raised using tweezers to slightly stretch the axon part. […] The right hind paw was left untreated and used as a normal paw. The operated site was disinfected with Isodine everyday in the first post-operative week to prevent infection.
As the test substance, compound 24 synthesized in Preparation Example 24 was used.
The nerve-injured paw (operated side) and the normal paw (untreated side) of each individual were previously subjected to an analgesic test, subsequently followed by Bennett operation. Furthermore, a single dose of the test substance (8 mg/kg) was intraperitoneally administered from the day of the operation, everyday for a week. The control group was administered with the vehicle of the test substance during the same period. After one week from the start of administration, the nerve injured paw (operated side) and the normal paw (untreated side) of each rat were again subjected to an analgesic test. […]

[2] = system: sciatic nerve entrapment model rats (Bennett model rats); assay: Analgesic effect in partial nerve injury models, paw pressure (Randall-Selitto) method; format: in vivo, Spraugue-Dawley rats; conditions: for pain threshold of the nerve-injured paw: started after hyperalgesia confirmed, FIG. 2
Experimental: as §1, with “for use” for “and used”
As the test substance, 3-(15-hydroxypentadecyl)-2,4,4-trimethyl-2-cyclohexen-1-one (hereafter, also referred to as compound 24) synthesized in Preparation Example 24 was used.
Rats showing reduction of pain threshold by 30% or more in the nerve-injured paw, and change in pain threshold within a range of 5% in the normal paw, as compared to preoperative values, were used for the experiment. Prior to administration of the test substance, the nerve-injured paw (operated side) and the normal paw (untreated side) of each individual were subjected to an analgesic test. Furthermore, the test substance-administered group was intraperitoneally administered with a single dose of the test substance (8 mg/kg, 24 mg/kg, and 40 mg/kg) everyday for a week. The control group was administered with the vehicle of the test substance during the same period. After one week from the start of administration, the nerve-injured paw (operated side) and the normal paw (untreated side) of each rat were again subjected to an analgesic test.
The paw pressure (Randall-Selitto) method using pressure stimuli was employed as the analgesic test. Mechanical pressure stimuli were applied on the dorsal portion of the rat hind paw by an analgesimeter, and the minimum value of pressure stimulus at which vocalization or withdrawal occurred was defined as pain threshold. In the measurement of pain threshold according to the paw pressure method, a rat has to be held down and restrained. […]

[3] = system: STZ-induced diabetic model mice; assay: Improving effect in dullness models, formaldehyde-induced licking and biting behavior; format: in vivo, ddY mice; conditions: a week of intraperitoneal administration (8, 24 and 40 mg/kg) with the STZ administration; 1% formaldehyde into plantar; FIG. 4
Experimental: Four-week-old male ddY mice were administered with a single dose of streptozotocin (hereunder, also referred to as STZ) (200 mg/kg) by tail vein injection, everyday for a week. For 24 hours after STZ administration, the rats were allowed to freely take a 10% glucose solution instead of drinking water, and then allowed to freely take distilled water. As the test substance, compound 24 synthesized in Preparation Example 24 was used. Concurrently with the start of STZ administration, the test substance-administration group was intraperitoneally administered with a single dose of the test substance (8 mg/kg, 24 mg/kg, and 40 mg/kg) everyday for a week. The control group was administered with the vehicle of the test substance during the same period. The blood glucose level of the tail venous blood was measured by a blood glucose meter (DEXTER ZII: Bayer Medical Ltd.). Individuals with a blood sugar level of 400 mg/dL or more, were used for the experiment. After a week of STZ administration, the mice were subcutaneously injected with 1% formaldehyde solution (20 μL) into the plantar of the left hind paw. The total time spent for licking (licking of plantar of the left hind paw) behavior and biting (biting of plantar of the left hind paw) behavior was scored every 5 minutes after administration, for 60 minutes.

Compound: O=C1C=C(CCCCCCCCCCCCCCO)CCC1 [Preparation Example 5, 3-(14-hydroxytetradecyl)-2-cyclohexen-1-one]
- melting point: 44 to 45 °C

Compound: CC1=C(CCCCCCCCCCCCCCCO)C(C)(C)CCC1=O [compound 24, 3-(15-hydroxypentadecyl)-2,4,4-trimethyl-2-cyclohexen-1-one]
- pain threshold of the nerve-injured paw after the Bennett operation ([1]; 8 mg/kg intraperitoneally from the day of the operation, everyday for a week, FIG. 3): no significant change in pain threshold
- pain threshold of the normal paw ([1]; normal paw (untreated side), 8 mg/kg intraperitoneally everyday for a week): no significant change in pain threshold
- pain threshold of the nerve-injured paw ([2]; 24 mg/kg intraperitoneally once a day for a week): significant increase in pain threshold
- pain threshold of the nerve-injured paw ([2]; 40 mg/kg intraperitoneally once a day for a week): significant increase in pain threshold
- pain threshold of the normal paw ([2]; normal paw (untreated side), after the one-week administration period, intraperitoneal): no significant change in pain threshold
- Phase II pain response (total time spent for licking and biting behavior) [3]: improved Phase II torpor

Compound: O=C1C=C(CCCCCCCCCCCO)CCC1 [Preparation Example 2, 3-(11-hydroxyundecyl)-2-cyclohexen-1-one]
- melting point: 34 to 35 °C

Results, then the molecule that gave them:

- melting point: 35 to 36 °C
Compound: O=C1C=C(CCCCCCCCCCCCO)CCC1 [Preparation Example 3, 3-(12-hydroxydodecyl)-2-cyclohexen-1-one]

- melting point: 42 to 43 °C
Compound: O=C1C=C(CCCCCCCCCCCCCO)CCC1 [Preparation Example 4, 3-(13-hydroxytridecyl)-2-cyclohexen-1-one]
